Entries after “also recorded” stand apart in the source; their conditions may differ.
Test system: SARS-CoV-2 B.1.617.2 and BA.1 variants
Assay type: cell-based
Conditions: B.1.617.2 (Delta) and BA.1 (Omicron)

How did the “effect on SARS-CoV-2 variants” value turn out when `CSc1ccc(-n2cnc3ccc(-c4nnc(CCc5cccc(C#N)c5)o4)cc32)cc1` [Compound P-0717632] was run?
Its value is “reduced intracellular viral titres; also recorded: inhibited”.

From patent US20250042887A1, “GLYCOGEN SYNTHASE KINASE-3 (GSK3) INHIBITOR COMPOUNDS FOR USE AS ANTIVIRAL AGENTS” (priority 2021, published 2025)
